Experiment [1] concerns the target T1, HMGCR (Cricetulus griseus, UniProt P00347).
T1 construct: endogenous in cells; host or cells: CHO-7, CHG, SRD-13A, SRD-15
T1 sequence (P00347 1-887): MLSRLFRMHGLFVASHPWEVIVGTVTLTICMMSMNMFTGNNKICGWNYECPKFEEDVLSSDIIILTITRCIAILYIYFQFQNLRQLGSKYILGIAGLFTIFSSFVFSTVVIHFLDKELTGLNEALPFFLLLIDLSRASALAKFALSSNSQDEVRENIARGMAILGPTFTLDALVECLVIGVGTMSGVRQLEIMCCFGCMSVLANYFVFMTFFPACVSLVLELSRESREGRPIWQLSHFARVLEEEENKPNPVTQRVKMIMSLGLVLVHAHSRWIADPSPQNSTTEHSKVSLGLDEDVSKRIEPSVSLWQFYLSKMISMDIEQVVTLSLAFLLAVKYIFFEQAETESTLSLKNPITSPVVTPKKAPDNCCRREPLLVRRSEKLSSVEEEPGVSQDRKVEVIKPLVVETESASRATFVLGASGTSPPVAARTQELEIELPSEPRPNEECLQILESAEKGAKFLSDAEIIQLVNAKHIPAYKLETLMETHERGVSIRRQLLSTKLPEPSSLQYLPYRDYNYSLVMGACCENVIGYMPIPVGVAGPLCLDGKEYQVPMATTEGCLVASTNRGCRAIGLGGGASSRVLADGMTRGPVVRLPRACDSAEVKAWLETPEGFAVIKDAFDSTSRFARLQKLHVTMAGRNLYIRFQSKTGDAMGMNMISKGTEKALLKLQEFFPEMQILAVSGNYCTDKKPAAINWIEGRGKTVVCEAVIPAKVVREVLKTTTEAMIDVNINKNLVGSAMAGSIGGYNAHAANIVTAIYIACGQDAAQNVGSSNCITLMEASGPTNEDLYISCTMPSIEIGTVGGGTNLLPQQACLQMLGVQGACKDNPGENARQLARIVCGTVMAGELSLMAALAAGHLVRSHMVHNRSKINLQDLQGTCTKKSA
As to the kind of experiment: Immunoblotting of endogenous HMGCR protein in CHO-7 (or CHG) cells. It counts as cell-based, Chinese hamster. As to conditions: for increase of HMGCR protein (maximum increment): statin 16 h, DMSO = 1; for endogenous HMGCR protein level (immunoblot), mean: CHG cells, DMSO = 100. The protocol: CHO-7 (Chinese hamster ovary cell, a clone of CHO-K1 cell line selected for growth in LPDS) and Huh7 (a human hepatocellular carcinoma cell line), SRD-13A (a Scap-deficient CHO-7 cell line) and SRD-15 (an Insig-1 and Insig-2-deficient CHO-7 cell line) were generous gifts from Russell Debose-Boyd at UT Southwestern Medical Center, USA. All cells were grown in a monolayer at 37 °C with 5% CO2. Huh7 cells were maintained in medium A supplemented with 10% FBS. CHO-7 and SRD-15 cells were maintained in medium B supplemented with 5% FBS. SRD-13A cells were maintained in medium B with 5% FBS, 5 μg ml^−1 cholesterol, 1 mM sodium mevalonate, 10 μM sodium oleate. No cell lines used in this study were found in the database of commonly misidentified cell lines that is maintained by ICLAC and NCBI Biosample. The cell lines have not been authenticated recently. No test for mycoplasma contamination was performed.
(§1) Cells were harvested and homogenized in the RIPA buffer (50 mM Tris-HCl, pH 8.0, 150 mM NaCl, 2 mM MgCl2, 1.5% NP-40, 0.1% SDS, and 0.5% sodium deoxycholate) supplemented with protease cocktail inhibitor, 10 μM MG-132, 10 μg ml^−1 leupeptin and 1 mM phenylmethylsulfonyl fluoride. The protein concentrations of lysates were determined using BCA method (Beyotime). Samples were mixed with the membrane protein solubilization buffer (62.5 mM Tris-HCl, pH 6.8, 15% SDS, 8 M urea, 10% glycerol, and 100 mM DTT) plus the 4× loading buffer (150 mM Tris-HCl, pH 6.8, 12% SDS, 30% glycerol, 6% 2-mercaptoethanol, and 0.02% bromophenol blue) and incubated for 30 min at 37 °C. Proteins were resolved by SDS-PAGE and transferred to nitrocellulose membranes (GE Healthcare). Immnoblots were blocked with 5% non-fat milk in TBS containing 0.075% Tween-20 (TBST) and probed with indicated antibodies overnight at 4 °C. After washing in TBST for five times, blots were incubated with HRP-conjugated secondary antibodies for 2 h at room temperature. Immunoreactivity was developed with Clarity Western ECL chemiluminescent substrates (170–5061, Bio-Rad). Western blot images were captured by Amersham Imager 600 (GE Healthcare), and integrated optical intensities of each band were quantified by Image-Pro Plus 6 software (Media Cybernetics). Uncropped blots are shown in Supplementary Figs. 9–13.

Experiment [2] concerns Hmgcr mRNA. The experiment can be described thus: RT-qPCR of Hmgcr mRNA in CHO-7 cells. It is filed as cell-based, Chinese hamster. To be noted: CHO-7 cells, statin 16 h (lovastatin up to 10 μM), DMSO = 1. How it is done: Cells were treated as described in corresponding figure legends, then total RNA was extracted from cells or mouse livers using TRI Reagent (T9424, Sigma-Aldrich). Equal amounts of RNA from cells or mice receiving the same treatment were pooled were used for cDNA synthesis with oligo dT and reverse transcriptase MLV (Promega). Gene expression was analyzed by quantitative real-time PCR on a Stratagene Mx30005PTM Q-PCR Systems. The primers used were listed in Supplementary Tables 2–4.
For orientation: Quantitative PCR measures a nucleic acid by following its amplification.

The target of experiment [3] is T2, HMGCR (TM1-8)-GFP (Cricetulus griseus, UniProt P00347).
T2 sequence (P00347 1-346): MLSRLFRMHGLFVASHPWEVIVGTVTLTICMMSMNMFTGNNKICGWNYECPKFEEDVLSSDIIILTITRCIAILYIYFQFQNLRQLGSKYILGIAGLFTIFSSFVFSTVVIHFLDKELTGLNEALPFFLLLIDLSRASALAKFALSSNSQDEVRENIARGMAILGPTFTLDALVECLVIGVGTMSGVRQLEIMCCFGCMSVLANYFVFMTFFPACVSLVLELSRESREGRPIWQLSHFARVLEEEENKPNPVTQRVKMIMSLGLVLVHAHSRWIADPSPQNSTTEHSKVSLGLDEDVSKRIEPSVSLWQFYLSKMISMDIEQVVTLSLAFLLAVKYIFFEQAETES
The experiment can be described thus: HMGCR (TM1-8)-GFP fluorescent assay (high-content imaging) in CHG cells. As to conditions: 16 h; for HMGCR (TM1-8)-GFP fluorescent intensity, mean: DMSO-treated cells = 100.
Protocol: (§2) We thus generated a cell line stably expressing the transmembrane domain of HMGCR fused with green fluorescent protein (GFP) as a reporter (HMGCR (TM1-8)-GFP) (Fig. 2a).
(§3) CHO-7 cells were transfected with pCMV-HMGCR (TM1-8)-GFP using FuGENE HD. Twenty-four hours, cells were switched to medium B supplemented with 5% FBS and selected in the presence of 1 mg ml^−1 G418 for 2 weeks. Surviving colonies were isolated and confirmed for GFP expression by immunoblotting and immunofluorescence. The resulting CHO-7/HMGCR (TM1-8)-GFP stable cell line (CHG) was maintained in medium B supplemented with 5% FBS and 200 μg ml^−1 G418.
(§4) CHG cells were treated as described in figure legends. Briefly, cells were seeded at day 0 in 96-well black plate (3904, Corning) at a density of 1.5 × 10^4 cells per well, in medium B containing with 5% LPDS. Day 1, corresponding compounds were added as figure legends described in medium B with 5% LPDS, 1 μM lovastatin, 50 μM sodium mevalonate for 16 h. Then cells were fixed with 4% paraformaldehyde for 20 min, washed with PBS for three times, and stained with 2 μg ml^−1 Hoechst 33342.
(§5) The fluorescent images (GFP and Hoechst channel) were captured using an Operatta High-Content Imaging System (PerkinElmer) with a ×20 objective. The cytoplasmic GFP fluorescence was measured with the Harmony Software (PerkinElmer). Five random selected filed per well were captured, and about 3000 cells were used to determine the mean cytoplasmic GFP fluorescent intensity per cell after subtracting background GFP intensity. The average GFP intensity of DMSO-treated cells was defined as 100.

The target of experiment [4] is T2, HMGCR (TM1-8)-GFP.
Protocol: as §2, §3, §4, §5
Experiment [5] has as its system LXR signaling pathway. Also on record: method as in earlier work. As to conditions: previous studies ref 2 (Yang, C. et al. J. Biol. Chem. 281, 27816-27826 (2006)); cited from earlier work.
Experiment [6] deals with LXR signaling pathway. The experiment can be described thus: RT-qPCR of LXR target genes (SREBP-1c, ABCA1, ABCG8) in Huh-7 cells. It is filed as cell-based, human. As to conditions: 16 h. The protocol:
Cells were treated as described in corresponding figure legends, then total RNA was extracted from cells or mouse livers using TRI Reagent (T9424, Sigma-Aldrich). Equal amounts of RNA from cells or mice receiving the same treatment were pooled were used for cDNA synthesis with oligo dT and reverse transcriptase MLV (Promega). Gene expression was analyzed by quantitative real-time PCR on a Stratagene Mx30005PTM Q-PCR Systems. The primers used were listed in Supplementary Tables 2–4. […]
pathway. a-c Huh-7 cells were treated with indicated compounds for 16 h and then harvested for total RNA isolation and RT-qPCR. Cells treated with LXR agonist T0901317 w ere used as positive controls. The relative mRNA levels of SREBP -1c (a), ABCA1 (b) and ABCG8 (c) were quantified . GAPDH was the reference gene. The relative mRNA level in DMSO-treated cells was defined as 1. Data are from 3 independent experiments and presented as mean ± SD.
(1 picture or pasted object on this page, not shown here)

In experiment [7] the target is T2, HMGCR (TM1-8)-GFP. As to the kind of experiment: Immunoblotting of overexpressed HMGCR (TM1-8)-GFP in CHG cells. Also on record: corresponding to the amino acids from 1 to 346 of hamster HMGCR; expressed in transfected cells. To be noted: 16 h, DMSO = 100. It is filed as cell-based, hamster. The protocol:
Fig. 2 A reporting system that measures HMGCR degradation. a Schematic of the HMGCR (TM1-8)-GFP fusion protein. […] Data are from three independent experiments and presented as mean ± SD. Source data are provided as a Source Data File.
as §1
For orientation: A western blot detects proteins with antibodies after separation by electrophoresis.

Where [8] appears, read: read-out: HMGCR (TM1-8)-GFP fluorescent intensity, mean.

Values joined by “and” are separate entries in the source; they are usually repeats but may differ in a detail not shown here. Identical values can stand only once.

Results on eight compounds are retold here after article PMC6277434, “Discovery of a potent HMG-CoA reductase degrader that eliminates statin-induced reductase accumulation and lowers cholesterol” (Nature Communications, 2018).

Usually EC50 stands for the concentration at which the effect is half-maximal.

With `CC[C@H](C)C(=O)O[C@H]1C[C@H](O)C=C2C=C[C@H](C)[C@H](CC[C@@H](O)C[C@@H](O)CC(=O)O)[C@H]21` [pravastatin], the “increase of HMGCR protein (maximum increment)” value (“increase of HMGCR protein” for short) in experiment [1] (CHO-7 cells) is approximately 12 fold. For the same compound, the “increase of Hmgcr mRNA abundance” value in experiment [2] amounted to 2.4 fold.

For `CC(C)n1c(/C=C/C(O)CC(O)CC(=O)O)c(-c2ccc(F)cc2)c2ccccc21` (stereo not shown) [fluvastatin], in experiment [1] (CHO-7 cells), the “increase of HMGCR protein” value is recorded as approximately 11 fold. Further, in experiment [2], the “increase of Hmgcr mRNA abundance” value came to 2.6 fold.

As for `CC(C)CCC[C@@H](C)[C@H]1CC[C@@]2(C)C3=C(CC[C@]12C)[C@@]1(C)CC[C@H](O)C(C)(C)[C@@H]1CC3` [24,25-DHL, 24,25-dihydrolanosterol, reference compound], the “HMGCR (TM1-8)-GFP fluorescent intensity, mean” value in experiment [3] (0.001 uM) came out at 100; in experiment [3] (0.0078 uM), 100.168; in experiment [3] (0.023 uM), 100; in experiment [3] (0.078 uM) it was 97.2588; in experiment [3] (0.234 uM) it was 80.6542; in experiment [3] (2.34 uM) it was 45.713. For the same compound, the “HMGCR (TM1-8)-GFP fluorescent intensity, mean” value in experiment [3] (15.6 uM) is recorded as 10.4985; in experiment [3] (31.2 uM) it was 5. Also, the half-maximal effective concentration (EC50) was ~1500 nM and 1500 nM in experiment [4]; 1600 nM in experiment [1] (CHO-7 cells, 16 h, read-out: EC50 to decrease endogenous HMGCR (dose–response immunoblotting)). Moreover, the “activation of LXR” value in experiment [5] is “no effect”. Also, in experiment [6], the “expression of LXR target genes (SREBP-1c, ABCA1 and ABCG8) mRNA” value was “did not activate the LXR target genes”. Also, the “endogenous HMGCR protein level (immunoblot), mean” value (“endogenous HMGCR protein level” below) in experiment [1] (0.3 uM, 16 h) was found to be 73.3548; in experiment [1] (1 uM, 16 h) it was 35.9866; in experiment [1] (3 uM, 16 h), 7.195. In addition, the “overexpressed HMGCR (TM1-8)-GFP protein level (anti-GFP immunoblot), mean” value (“overexpressed HMGCR” below) in experiment [7] (0.3 uM) is reported as 87.2697; in experiment [7] (1 uM), 51.2487; in experiment [7] (3 uM) it was 6.898.

For `CC(C)CCC[C@@H](C)[C@H]1CC[C@H]2[C@@H]3CC=C4C[C@@H](O)CC[C@]4(C)[C@H]3CC[C@]12C` [Cholesterol], in experiment [3] (setting [8]), the remaining activity at 0.001 µM was 100%, the remaining activity at 0.01 µM stood at 100%, the remaining activity at 0.1 µM came to 95.9% and the remaining activity at 0.3 µM turned out to be 88.9%. For the same compound, in experiment [3] (setting [8]), the remaining activity at 1 µM was found to be 77.2%, the remaining activity at 3 µM came to 66.6%, the remaining activity at 10 µM was 65.5% and the remaining activity at 20 µM stood at 58.9%. Besides, the remaining activity at 30 µM in experiment [3] (setting [8]) is 47%. Moreover, the DC50 in experiment [4] is ~30400 nM and 30400 nM. The “endogenous HMGCR protein level” value in experiment [1] (1 uM, 16 h) was found to be 100.862. For the same compound, the “endogenous HMGCR protein level” value in experiment [1] (3 uM, 16 h) is on record as 95.8793. Moreover, the “endogenous HMGCR protein level” value in experiment [1] (10 uM, 16 h) is 57.8709. Besides, the “overexpressed HMGCR” value in experiment [7] (1 uM) amounted to 93.1421. Besides, in experiment [7] (3 uM), the “overexpressed HMGCR” value stood at 90.7374. Besides, the “overexpressed HMGCR” value in experiment [7] (10 uM) was 74.0079.

As for `CC(C)=CCC[C@@H](C)[C@H]1CC[C@@]2(C)C3=C(CC[C@]12C)[C@@]1(C)CC[C@H](O)C(C)(C)[C@@H]1CC3` [lanosterol], in experiment [5], the “activation of LXR” value is listed as “no effect”. Besides, the “expression of LXR target genes (SREBP-1c, ABCA1 and ABCG8) mRNA” value in experiment [6] was “did not activate the LXR target genes”.

Regarding `CCC(C)(C)C(=O)O[C@H]1C[C@@H](C)C=C2C=C[C@H](C)[C@H](CC[C@@H]3C[C@@H](O)CC(=O)O3)[C@H]21` [simvastatin], in experiment [1] (CHO-7 cells), the “increase of HMGCR protein” value is ~ 15 fold. Further, the “increase of Hmgcr mRNA abundance” value in experiment [2] came out at 3.5 fold.

`CC(C)c1nc(N(C)S(C)(=O)=O)nc(-c2ccc(F)cc2)c1/C=C/[C@@H](O)C[C@@H](O)CC(=O)O` [rosuvastatin]: the “increase of HMGCR protein” value in experiment [1] (CHO-7 cells) is on record as approximately 17 fold. In experiment [2], the “increase of Hmgcr mRNA abundance” value is given as 2.3 fold.

Take `CC(C)c1c(C(=O)Nc2ccccc2)c(-c2ccccc2)c(-c2ccc(F)cc2)n1CC[C@@H](O)C[C@@H](O)CC(=O)O` [atorvastatin]: in experiment [1] (CHO-7 cells), the “increase of HMGCR protein” value was approximately 9 fold. Also, the “increase of Hmgcr mRNA abundance” value in experiment [2] is 1.8 fold.
